The source of these data is patent publication US20210032651A1, “IMPROVEMENT OF HERBICIDE TOLERANCE TO HPPD INHIBITORS BY DOWN-REGULATION OF PUTATIVE 4-HYDROXYPHENYLPYRUVATE REDUCTASES IN SOYBEAN” (BASF SE, priority 2017, published 2021).

The test system of the experiment is soybean T1 plants transformed with pMLS0519 or pCPE825. Briefly: Field trial of the T1 generation, herbicide tolerance. The class given is in vivo. The settings on record: Puerto Rico, pMLS0519 and pCPE825 the most effective of the constructs tested.

Regarding `CS(=O)(=O)c1cc(C(F)(F)F)ccc1C(=O)c1cnoc1C1CC1` [isoxaflutole, (5-cyclopropyl-4-isoxazolyl)[2-(methylsulfonyl)-4-(trifluoromethyl)phenyl]methanone], the “tolerance in field trial” value is “good tolerance”.
